The text below walks through data of patent publication US8207193B2 (priority 2006, dated 2012).

Structures are written as SMILES. Some results are limits rather than exact numbers.

Series [1] addresses human muscarinic acetylcholine M3 receptor (M3-ACh) (Homo sapiens, UniProt P20309). Put plainly: biochemical. The format is binding.
Series [2] can be described thus: Measurement of plasma protein binding by equilibrium dialysis. To be noted: 37° C., 5 μM compound.

human muscarinic acetylcholine M3 receptor (M3-ACh), sequence (P20309 whole entry): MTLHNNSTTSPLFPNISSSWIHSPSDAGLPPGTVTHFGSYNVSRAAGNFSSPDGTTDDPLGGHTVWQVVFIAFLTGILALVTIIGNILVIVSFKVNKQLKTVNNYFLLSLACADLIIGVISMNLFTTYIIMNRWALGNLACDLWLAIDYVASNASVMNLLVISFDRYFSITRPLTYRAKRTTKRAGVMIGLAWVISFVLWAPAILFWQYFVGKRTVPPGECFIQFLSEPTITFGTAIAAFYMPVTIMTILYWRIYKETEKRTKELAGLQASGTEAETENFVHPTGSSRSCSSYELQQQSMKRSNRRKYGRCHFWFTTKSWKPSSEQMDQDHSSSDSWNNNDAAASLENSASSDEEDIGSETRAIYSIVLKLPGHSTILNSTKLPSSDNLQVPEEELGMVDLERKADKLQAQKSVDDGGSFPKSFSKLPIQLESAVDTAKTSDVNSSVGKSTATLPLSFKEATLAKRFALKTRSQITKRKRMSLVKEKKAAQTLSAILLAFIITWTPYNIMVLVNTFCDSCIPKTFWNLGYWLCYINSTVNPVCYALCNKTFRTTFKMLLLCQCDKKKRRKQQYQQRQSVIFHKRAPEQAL

The term IC50 denotes the concentration that gives 50% inhibition. For the molecule `O=C(C[N+]12CCC(CC1)[C@@H](OC(=O)C1(c3ccccc3)CCCCCC1)C2)Nc1cnccn1.[Br-]` [Example 16, (3R)-1-[2-Oxo-2-(pyrazin-2-ylamino)ethyl]-3-{[(1-phenylcycloheptyl)carbonyl]oxy}-1-azoniabicyclo[2.2.2]octane Bromide], in series [1] (M3 binding IC50), the IC50 was below 2 nM. For the same molecule, the “human plasma protein binding” value in series [2] worked out at 94 % bound. `Cc1cnc(NC(=O)C[N+]23CCC(CC2)[C@@H](OC(=O)C2(c4ccccc4)CCCCCC2)C3)cn1` [Example 33, (3R)-1-{2-[(5-Methylpyrazin-2-yl)amino]-2-oxoethyl}-3-{[(1-phenylcycloheptyl)carbonyl]oxy}-1-azoniabicyclo[2.2.2]octane Bromide] had an IC50 in series [1] (M3 binding IC50) below 2 nM. In the case of `COc1ccc(CC[N+]23CCC(CC2)[C@@H](OC(=O)C2(c4ccccc4)CCCCCC2)C3)cc1Cl` [Example 38, (3R)-1-[2-(3-Chloro-4-methoxyphenyl)ethyl]-3-{[(1-phenylcycloheptyl)carbonyl]oxy}-1-azoniabicyclo[2.2.2]octane Bromide], the IC50 in series [1] (M3 binding IC50) was below 2 nM.

Turning to `C[N+]12CCC(CC1)[C@@H](OC(=O)C1(c3ccccc3)CCCCC1)C2` [compound 5, (3R)-1-Methyl-3-{[(1-phenylcyclohexyl)carbonyl]oxy}-1-azoniabicyclo[2.2.2]octane Iodide, reference compound], in series [1] (pIC50 of comparative compounds containing a cyclohexyl (C6) ring in place of cycloheptyl (C7)), the midpoint of inhibition, the IC50, lay at 50.1 nM. Turning to `O=C(O[C@H]1C[N+]2(CCc3ccccc3)CCC1CC2)C1(c2ccccc2)CCCCCC1` [Example 26, (3R)-3-{[(1-Phenylcycloheptyl)carbonyl]oxy}-1-(2-phenylethyl)-1-azoniabicyclo[2.2.2]octane Bromide], the IC50 in series [1] (M3 binding IC50) was below 2 nM. Molecule `O=C(O[C@H]1C[N+]2(CCc3cccc(C(F)(F)F)c3)CCC1CC2)C1(c2ccccc2)CCCCCC1` [Example 27, (3R)-3-{[(1-Phenylcycloheptyl)carbonyl]oxy}-1-{2-[3-(trifluoromethyl)phenyl]ethyl}-1-azoniabicyclo[2.2.2]octane Bromide] showed an IC50 in series [1] (M3 binding IC50) below 2 nM. Regarding `O=C(C[N+]12CCC(CC1)[C@@H](OC(=O)C1(c3ccccc3)CCCCCC1)C2)Nc1cncc(Cl)n1` [Example 31, (3R)-1-{2-[(6-Chloropyrazin-2-yl)amino]-2-oxoethyl}-3-{[(1-phenylcycloheptyl)carbonyl]oxy}-1-azoniabicyclo[2.2.2]octane Bromide], the IC50 in series [1] (M3 binding IC50) is below 2 nM. The molecule `O=C(O)C[N+]12CCC(CC1)[C@@H](OC(=O)C1(c3ccccc3)CCCCCC1)C2` [Example 34, (3R)-1-(Carboxymethyl)-3-{[(1-phenylcycloheptyl)carbonyl]oxy}-1-azoniabicyclo[2.2.2]octane Bromide] gave an IC50 in series [1] (M3 binding IC50) above 10 nM.

The molecule `O=C(O[C@H]1C[N+]2(CCOCc3ccccc3)CCC1CC2)C1(c2ccccc2)CCCCCC1` [Example 12, (3R)-1-[2-(Benzyloxy)ethyl]-3-{[(1-phenylcycloheptyl)carbonyl]oxy}-1-azoniabicyclo[2.2.2]octane Bromide] showed an IC50 in series [1] (M3 binding IC50) below 2 nM. `O=C(C[N+]12CCC(CC1)[C@@H](OC(=O)C1(c3ccccc3)CCCCCC1)C2)Nc1cccnn1` [Example 17, (3R)-1-[2-Oxo-2-(pyridazin-3-ylamino)ethyl]-3-{[(1-phenylcycloheptyl)carbonyl]oxy}-1-azoniabicyclo[2.2.2]octane Bromide]: the IC50 in series [1] (M3 binding IC50) is below 2 nM.

Regarding `O=C(O[C@H]1C[N+]2(CCCOc3ccccc3)CCC1CC2)C1(c2ccccc2)CCCCCC1` [Example 3, (3R)-1-(3-Phenoxypropyl)-3-{[(1-phenylcycloheptyl)carbonyl]oxy}-1-azoniabicyclo[2.2.2]octane Bromide], the IC50 was below 2 nM in series [1] (M3 binding IC50) and 0.0501 nM in series [1] (pIC50).

For `O=C(O[C@H]1C[N+]2(CCc3ccc4c(c3)OCO4)CCC1CC2)C1(c2ccccc2)CCCCCC1` [Example 28, (3R)-1-[2-(1,3-Benzodioxol-5-yl)ethyl]-3-{[(1-phenylcycloheptyl)carbonyl]oxy}-1-azoniabicyclo[2.2.2]octane bBromide], in series [1] (M3 binding IC50), the IC50 was below 2 nM. With `Cc1cc(NC(=O)C[N+]23CCC(CC2)[C@@H](OC(=O)C2(c4ccccc4)CCCCCC2)C3)on1` [Example 39, (3R)-1-{2-[(3-Methylisoxazol-5-yl)amino]-2-oxoethyl}-3-{[(1-phenylcycloheptyl)carbonyl]oxy}-1-azoniabicyclo[2.2.2]octane Bromide], in series [1] (M3 binding IC50), the IC50 was below 2 nM. In the case of `O=C(C[N+]12CCC(CC1)[C@@H](OC(=O)C1(c3ccccc3)CCCCCC1)C2)Nc1ccon1` [Example 4, (3R)-1-[2-(Isoxazol-3-ylamino)-2-oxoethyl]-3-{[(1-phenylcycloheptyl)carbonyl]oxy}-1-azoniabicyclo[2.2.2]octane Bromide], the IC50 in series [1] (M3 binding IC50) is below 2 nM; in series [1] (pIC50), 0.0631 nM.
